Data as given in US20260053932A1, “COMPOUNDS AND METHODS FOR THE TARGETED DEGRADATION OF ANDROGEN RECEPTOR AND ASSOCIATED METHODS OF USE” (Arvinas Operations, Inc., priority 2020, published 2026).

Tested on: androgen receptor (AR) in LNCaP and/or VCaP cells
Assay: Androgen Receptor ELISA assay (AR degradation)
Format: cell-based
Conditions: LNCaP and/or VCaP cells; 5 hours incubation; media with R1881; read-out: DC50 Code* (degradation of AR ELISA)
How it was run: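 VCaP cells grown ≥3 days, then treated 5 h with compound in media containing 1 nM R1881 (10× stock). Cells lysed and AR quantified by sandwich ELISA (mouse AR detection Ab, HRP anti-mouse, TMB). DC50 and Dmax derived from AR degradation.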

For N#Cc1ccc(O[C@H]2CC[C@H](NC(=O)c3cnc(N4CCC(CN(C5CCOCC5)[C@H]5C[C@H](Oc6ccc7c(c6)C(=O)N(C6CCC(=O)NC6=O)C7=O)C5)CC4)cn3)CC2)cc1Cl (stereo partly drawn) [Compound 30, N-((1r,4r)-4-(3-chloro-4-cyanophenoxy)cyclohexyl)-5-(4-((((1r,3r)-3-((2-(2,6-dioxopiperidin-3-yl)-1,3-dioxoisoindolin-5-yl)oxy)cyclobutyl) (tetrahydro-2H-pyran-4-yl)amino)methyl)piperidin-1-yl)pyrazine-2-carboxamide], the DC50 was under 1 nM.

COc1cc(O[C@H]2CC[C@H](NC(=O)c3cnc(N4CCC(CN(C(C)C)[C@H]5CC[C@H](Oc6ccc7c(c6)C(=O)N(C6CCC(=O)NC6=O)C7=O)CC5)CC4)cn3)CC2)ccc1C#N (stereo partly drawn) [Compound 31, N-((1r,4r)-4-(4-cyano-3-methoxyphenoxy)cyclohexyl)-5-(4-((((1r,4r)-4-((2-(2,6-dioxopiperidin-3-yl)-1,3-dioxoisoindolin-5-yl)oxy)cyclohexyl) (isopropyl)amino)methyl)piperidin-1-yl)pyrazine-2-carboxamide] showed a DC50 of under 1 nM.

COc1cc(O[C@H]2CC[C@H](NC(=O)c3cnc(N4CCC(CN(C(C)C)[C@H]5C[C@H](Oc6ccc7c(c6)C(=O)N(C6CCC(=O)NC6=O)C7=O)C5)CC4)cn3)CC2)ccc1C#N (stereo partly drawn) [Compound 32, N-((1r,4r)-4-(4-cyano-3-methoxyphenoxy)cyclohexyl)-5-(4-((((1r,3r)-3-((2-(2,6-dioxopiperidin-3-yl)-1,3-dioxoisoindolin-5-yl)oxy)cyclobutyl) (isopropyl)amino)methyl)piperidin-1-yl)pyrazine-2-carboxamide] gave a DC50 of under 1 nM.

Work on CCN(CC1CCN(c2cnc(C(=O)N[C@H]3CC[C@H](Oc4ccc(C#N)c(OC)c4)CC3)cn2)CC1)[C@H]1C[C@H](Oc2ccc3c(c2)C(=O)N(C2CCC(=O)NC2=O)C3=O)C1 (stereo partly drawn) [Compound 33, N-((1r,4r)-4-(4-cyano-3-methoxyphenoxy)cyclohexyl)-5-(4-((((1r,3r)-3-((2-(2,6-dioxopiperidin-3-yl)-1,3-dioxoisoindolin-5-yl)oxy)cyclobutyl)(ethyl)amino)methyl)piperidin-1-yl)pyrazine-2-carboxamide] yielded a DC50 of under 1 nM.

In the case of COc1cc(O[C@H]2CC[C@H](NC(=O)c3cnc(N4CCC(CN(C(C)C)[C@H]5C[C@H](Oc6ccc7c(c6)C(=O)N(C6CCC(=O)NC6=O)C7)C5)CC4)cn3)CC2)ccc1C#N (stereo partly drawn) [Compound 34, N-((1r,4r)-4-(4-cyano-3-methoxyphenoxy)cyclohexyl)-5-(4-((((1r,3r)-3-((2-(2,6-dioxopiperidin-3-yl)-3-oxoisoindolin-5-yl)oxy)cyclobutyl) (isopropyl)amino)methyl)piperidin-1-yl)pyrazine-2-carboxamide], the DC50 is reported as under 1 nM.

CC(C)N(CC1CCN(c2cnc(C(=O)N[C@H]3CC[C@H](Oc4ccc(C#N)c(Cl)c4)CC3)cn2)CC1)[C@H]1CC[C@H](Oc2ccc3c(c2)C(=O)N(C2CCC(=O)NC2=O)C3=O)CC1 (stereo partly drawn) [Compound 35, N-((1r,4r)-4-(3-chloro-4-cyanophenoxy)cyclohexyl)-5-(4-((((1r,4r)-4-((2-(2,6-dioxopiperidin-3-yl)-1,3-dioxoisoindolin-5-yl)oxy)cyclohexyl) (isopropyl)amino)methyl)piperidin-1-yl)pyrazine-2-carboxamide] was tested, and the DC50 was under 1 nM.

COc1cc(O[C@H]2CC[C@H](NC(=O)c3cnc(N4CC5(CC(CN(C(C)C)[C@H]6C[C@H](Oc7ccc8c(c7)C(=O)N(C7CCC(=O)NC7=O)C8=O)C6)C5)C4)nc3)CC2)ccc1C#N (stereo partly drawn) [Compound 36, N-((1r,4r)-4-(4-cyano-3-methoxyphenoxy)cyclohexyl)-2-(6-((((1r,3r)-3-((2-(2,6-dioxopiperidin-3-yl)-1,3-dioxoisoindolin-5-yl)oxy)cyclobutyl) (isopropyl)amino)methyl)-2-azaspiro[3.3]heptan-2-yl)pyrimidine-5-carboxamide] gave a DC50 of under 1 nM.

Compound CC(C)N(CC1CN(c2cnc(C(=O)N[C@H]3CC[C@H](Oc4ccc(C#N)c(Cl)c4)CC3)cn2)C1)[C@H]1C[C@H](Oc2ccc3c(c2)C(=O)N(C2CCC(=O)NC2=O)C3=O)C1 (stereo partly drawn) [Compound 37, N-((1r,4r)-4-(3-chloro-4-cyanophenoxy)cyclohexyl)-5-(3-((((1r,3r)-3-((2-(2,6-dioxopiperidin-3-yl)-1,3-dioxoisoindolin-5-yl)oxy)cyclobutyl) (isopropyl)amino)methyl)azetidin-1-yl)pyrazine-2-carboxamide] has a DC50 of under 1 nM.

COc1cc(O[C@H]2CC[C@H](NC(=O)c3cnc(N4CCC(CN(C(C)C)[C@H]5C[C@H](Oc6cc(OC)c7c(c6)C(=O)N(C6CCC(=O)NC6=O)C7=O)C5)CC4)cn3)CC2)ccc1C#N (stereo partly drawn) [Compound 38, N-((1r,4r)-4-(4-cyano-3-methoxyphenoxy)cyclohexyl)-5-(4-((((1r,3r)-3-((2-(2,6-dioxopiperidin-3-yl)-7-methoxy-1,3-dioxoisoindolin-5-yl)oxy)cyclobutyl) (isopropyl)amino)methyl)piperidin-1-yl)pyrazine-2-carboxamide] showed a DC50 of under 1 nM.

With COc1cc(O[C@H]2CC[C@H](NC(=O)c3cnc(N4CCC(CN(C)[C@H]5C[C@H](Oc6ccc7c(c6)C(=O)N(C6CCC(=O)NC6=O)C7=O)C5)CC4)cn3)CC2)ccc1C#N (stereo partly drawn) [Compound 39, N-((1r,4r)-4-(4-cyano-3-methoxyphenoxy)cyclohexyl)-5-(4-((((1r,3r)-3-((2-(2,6-dioxopiperidin-3-yl)-1,3-dioxoisoindolin-5-yl)oxy)cyclobutyl) (methyl)amino)methyl)piperidin-1-yl)pyrazine-2-carboxamide] the DC50 was under 1 nM.

Compound CC(C)Oc1cc(N2CCN(CC3CCN(c4ccc(C(=O)N[C@H]5CC[C@H](Oc6ccc(C#N)c(Cl)c6)CC5)nn4)CC3)CC2)cc2c1C(=O)N(C1CCC(=O)NC1=O)C2=O (stereo partly drawn) [Compound 40, N-((1r,4r)-4-(3-chloro-4-cyanophenoxy)cyclohexyl)-6-(4-((4-(2-(2,6-dioxopiperidin-3-yl)-7-isopropoxy-1,3-dioxoisoindolin-5-yl)piperazin-1-yl)methyl)piperidin-1-yl)pyridazine-3-carboxamide] has a DC50 of under 1 nM.

CC(C)N(CC1CCN(c2cnc(C(=O)N[C@H]3CC[C@H](Oc4ccc(C#N)c(Cl)c4)CC3)cn2)CC1)[C@H]1C[C@H](Oc2ccc3c(c2)C(=O)N(C2CCC(=O)NC2=O)C3)C1 (stereo partly drawn) [Compound 41, N-((1r,4r)-4-(3-chloro-4-cyanophenoxy)cyclohexyl)-5-(4-((((1r,3r)-3-((2-(2,6-dioxopiperidin-3-yl)-3-oxoisoindolin-5-yl)oxy)cyclobutyl) (isopropyl)amino)methyl)piperidin-1-yl)pyrazine-2-carboxamide] was tested, and the DC50 was under 1 nM.

Compound CC(C)N(CC1CCN(c2cnc(C(=O)N[C@H]3CC[C@H](Oc4ccc(C#N)c(Cl)c4)CC3)cn2)CC1)[C@H]1C[C@H](Oc2cc(F)c3c(c2)C(=O)N(C2CCC(=O)NC2=O)C3=O)C1 (stereo partly drawn) [Compound 42, N-((1r,4r)-4-(3-chloro-4-cyanophenoxy)cyclohexyl)-5-(4-((((1r,3r)-3-((2-(2,6-dioxopiperidin-3-yl)-7-fluoro-1,3-dioxoisoindolin-5-yl)oxy)cyclobutyl) (isopropyl)amino)methyl)piperidin-1-yl)pyrazine-2-carboxamide] has a DC50 of under 1 nM.

With CCOc1cc(O[C@H]2CC[C@H](NC(=O)c3cnc(N4CC(CN(C(C)C)[C@H]5C[C@H](Oc6ccc7c(c6)C(=O)N(C6CCC(=O)NC6=O)C7=O)C5)C4)cn3)CC2)ccc1C#N (stereo partly drawn) [Compound 43, N-((1r,4r)-4-(4-cyano-3-ethoxyphenoxy)cyclohexyl)-5-(3-((((1r,3r)-3-((2-(2,6-dioxopiperidin-3-yl)-1,3-dioxoisoindolin-5-yl)oxy)cyclobutyl) (isopropyl)amino)methyl)azetidin-1-yl)pyrazine-2-carboxamide] the DC50 was under 1 nM.

With CC(C)Oc1cc(O[C@H]2C[C@H](N(CC3CCN(c4cnc(C(=O)N[C@H]5CC[C@H](Oc6ccc(C#N)c(Cl)c6)CC5)cn4)CC3)C(C)C)C2)cc2c1C(=O)N(C1CCC(=O)NC1=O)C2=O (stereo partly drawn) [Compound 44, N-((1r,4r)-4-(3-chloro-4-cyanophenoxy)cyclohexyl)-5-(4-((((1r,3r)-3-((2-(2,6-dioxopiperidin-3-yl)-7-isopropoxy-1,3-dioxoisoindolin-5-yl)oxy)cyclobutyl) (isopropyl)amino)methyl)piperidin-1-yl)pyrazine-2-carboxamide] the DC50 was under 1 nM.

CC(C)N(CC1CCN(c2cnc(C(=O)N[C@H]3CC[C@H](Oc4ccc(C#N)c(Cl)c4)CC3)cn2)CC1)[C@H]1C[C@H](Oc2c(F)cc3c(c2F)C(=O)N(C2CCC(=O)NC2=O)C3=O)C1 (stereo partly drawn) [Compound 45, N-((1r,4r)-4-(3-chloro-4-cyanophenoxy)cyclohexyl)-5-(4-((((1r,3r)-3-((2-(2,6-dioxopiperidin-3-yl)-4,6-difluoro-1,3-dioxoisoindolin-5-yl)oxy)cyclobutyl) (isopropyl)amino)methyl)piperidin-1-yl)pyrazine-2-carboxamide] was tested, and the DC50 was under 1 nM.

Cc1cc(O[C@H]2CC[C@H](NC(=O)c3cnc(N4CCC(CN(C(C)C)[C@H]5C[C@H](Oc6cc(F)c7c(c6)C(=O)N(C6CCC(=O)NC6=O)C7=O)C5)CC4)cn3)CC2)cc(C)c1C#N (stereo partly drawn) [Compound 46, N-((1r,4r)-4-(4-cyano-3,5-dimethylphenoxy)cyclohexyl)-5-(4-((((1r,3r)-3-((2-(2,6-dioxopiperidin-3-yl)-7-fluoro-1,3-dioxoisoindolin-5-yl)oxy)cyclobutyl) (isopropyl)amino)methyl)piperidin-1-yl)pyrazine-2-carboxamide] was tested, and the DC50 was under 1 nM.

CC(C)N(CC1CCN(c2ccc(C(=O)N[C@H]3CC[C@H](Oc4ccc(C#N)c(Cl)c4)CC3)nn2)CC1)[C@H]1CC[C@H](Oc2ccc3c(c2)C(=O)N(C2CCC(=O)NC2=O)C3=O)CC1 (stereo partly drawn) [Compound 47, N-((1r,4r)-4-(3-chloro-4-cyanophenoxy)cyclohexyl)-6-(4-((((1r,4r)-4-((2-(2,6-dioxopiperidin-3-yl)-1,3-dioxoisoindolin-5-yl)oxy)cyclohexyl) (isopropyl)amino)methyl)piperidin-1-yl)pyridazine-3-carboxamide] showed a DC50 of under 1 nM.
